Holding throughout (assay type): in vivo
Assay [1] deals with intragastric pressure. Description: Increase in intragastric pressure in the rat (gastric activity). The note with it: sc, 40 min, conscious starved rats, subcutaneous, 40 minute period after administration, read-out: minimum dose for activity (increase in intragastric pressure), Dose mg/kg Subcutaneously. As to the method: Increase in intragastric pressure in the rat
Intragastric pressure changes were recorded from previously starved conscious but retrained rats using a saline filled catheter inserted into the lumen of the stomach via a permanent gastric fistula. The catheter was connected to a physiological pressure transducer and pressure changes recorded on a hot wire pen recorder. In each animal pre-dose period of 40 minutes was allowed to obtain a measure of spontaneous activity. An index of activity was obtained by measuring the average height of pressure waves during 10 minute periods. Values for 4 such periods were obtained during assessment of spontaneous activity and for the 40 minute period after the subcutaneous administration of the compounds. Students `t` test was applied to the difference in average values obtained for spontaneous and post-compound activity.

Assay [2] concerns apomorphine induced climbing. Description: Inhibition of apomorphine induced climbing in the mouse. The note with it: apomorphine 1 mg/kg s.c.; for ED50: Mus musculus, sc, scored at 10, 20 and 30 minutes, read-out: Dose mg/kg ED50 (dose that inhibits the apomorphine response by 50%). As to the method: Compounds were also tested for their ability to inhibit apomorphine induced climbing in the mouse. Inactivity in this test may be indicative of a low propensity to produce extra-pyramidal side-effects in man.
The method used for this test is as set out below:
Inhibition of apomorphine induced climbing in the mouse
The test is based on that described by Protais, P., Constantin, J. and Schwartz, J. C. (1976), Psychopharmacology, 50, 1-6.
Apomorphine 1 mg/kg s.c. induces mice to climb the wall of a wire cage (inverted food hopper--11×7.5×18 cm high). Mice acclimatised in their home cages in groups of 5 are placed under the hoppers immediately after the injection of apomorphine 1 mg/kg s.c. At 10, 20 and 30 minutes after injection climbing behaviour is scored. The mice are observed for 30 seconds and scored according to the position in which they spend the majority of time, score 0--four paws on floor of cage; score 1--fore paws only on walls; score 2--all paws on wall of cage.
The scores at all 3 times for each mouse are summed for apomorphine only and for apomorphine plus compound groups of mice.
Total scores are then calculated as the percentage inhibition of climbing as follows: [formula]
From graphical representation of the results ED50 values (the dose that inhibits the apomorphine response by 50%) are then obtained.

Assay [3] relates to intragastric pressure. Description: Increase in intragastric pressure in the rat (gastric activity). The following applies: conscious starved rats, oral, read-out: minimum dose for activity (increase in intragastric pressure), Dose mg/kg Orally.

The structures appear in SMILES notation. Like-named read-outs stand apart in the source and are kept apart here.

As to `COc1cc(N)c(Cl)cc1C(=O)N[C@H]1CCN2CCOC[C@H]2C1` (relative stereo) [Example 4, (±) 4-Amino-5-chloro-2-methoxy-N-(8β-1-aza-6α-H-4-oxabicyclo [4,4,0]delcyl)benzamide], in the assay on intragastric pressure [1], the minimal effective dose was found to be 1 mg/kg. In addition, the ED50 in assay [2] (route of compound not given) amounted to 30 mg/kg.
For `COc1cc(N)c(Cl)cc1C(=O)N[C@H]1CCN2[C@H](COC[C@H]2C)C1` (relative stereo) [Example 6, (±) 4-Amino-5-chloro-2-methoxy-N-(8α-1-aza-2β-methyl-6α-H-4-oxabicyclo[4,4,0]decyl)benzamide], the minimal effective dose in the assay on intragastric pressure [1] was found to be 0.2 mg/kg; with intragastric pressure [3], 0.5 mg/kg. In assay [2] (route of compound not given), the ED50 came out at 40 mg/kg.
Regarding `COc1cc(N)c(Cl)cc1C(=O)N[C@H]1CCN2[C@H](COC[C@H]2c2ccccc2)C1` (relative stereo) [Example 12, (±) 4-Amino-5-chloro-2-methoxy-N-(8α-1-aza-2β-phenyl-6α-H-4-oxabicyclo[4,4,0]decyl)benzamide], in assay [2] (route of compound not given), the ED50 came to 30 mg/kg.
On to `COc1cc(N)c(Cl)cc1C(=O)N[C@H]1CCN2CCSC[C@@H]2C1` (relative stereo) [Example 8, (±) 4-Amino-5-chloro-2-methoxy-N-(8α-1-aza-6α-H-4-thiabicyclo [4,4 ,0]decyl)benzamide], for which the minimal effective dose in the assay on intragastric pressure [1] was 5 mg/kg. In assay [2] (at 25 mg/kg, route of compound not given), the “Dose mg/kg ED50: Ia at stated dose (inhibition of apomorphine induced climbing)” value is “Ia at 25”.
Turning to `COc1cc(N)c(Cl)cc1C(=O)N[C@H]1CCN2CCOC[C@@H]2C1` (relative stereo) [Example 2, (±) 4-Amino-5-chloro-2-methoxy-N-(8α-1-aza-6α-H-4-oxabicyclo [4,4,0]decyl)benzamide], the minimal effective dose with intragastric pressure [1] and in the assay on intragastric pressure [3] was 0.5 mg/kg in each case. Besides, in assay [2] (route of compound not given), the ED50 was 70 mg/kg.
In the case of `COc1cc(N)c(Cl)cc1C(=O)N[C@@H]1CCN2[C@H](COC[C@H]2c2ccccc2)C1` (relative stereo) [Example 14, (±) 4-Amino-5-chloro-2-methoxy-N-(8β-1-aza-2β-phenyl-6α-H-4-oxabicyclo[4,4,0]decyl)benzamide monohydrate], in the assay on intragastric pressure [1], the minimal effective dose is 1 mg/kg. In assay [2] (at 10 mg/kg po), the “Dose mg/kg ED50: Ia at stated dose (inhibition of apomorphine induced climbing)” value is given as “Ia at 10 po”.
As to `COc1cc(N)c(Cl)cc1C(=O)NC1CCN2CC[S+]([O-])CC2C1` (racemic) [Example 16, (±) 4-Amino-5-chloro-2-methoxy-N-(8α,β-1-aza-6α-H-4-oxothiabicyclo[4,4,0]decyl)benzamide], the minimal effective dose with intragastric pressure [1] was determined as 5 mg/kg. In addition, the “Dose mg/kg ED50: Ia at stated dose (inhibition of apomorphine induced climbing)” value in assay [2] (at 10 mg/kg po) was “Ia at 10 po”.
`COc1cc(N)c(Cl)cc1C(=O)N[C@H]1CCN2CCSC[C@H]2C1` (relative stereo) [Example 10, (±) 4-Amino-5-chloro-2-methoxy-N-(8β-aza-6α-H-4-thiabicyclo [4,4,0]decyl)benzamide]: in the assay on intragastric pressure [1], the minimal effective dose was determined as 1 mg/kg.
As to `COc1cc(N)c(Cl)cc1C(=O)N[C@H]1CCN2CC[S+]([O-])C[C@H]2C1` (mixture of isomers) [Example 18, (±) 4-Amino-5-chloro-2-methoxy-N-(8β-1-aza-6α-H-4-oxothiabicyclo[4,4,0]decyl)benzamide], the minimal effective dose with intragastric pressure [1] is 1 mg/kg.

These data come from patent publication US4346089A, “1-Aza-4-oxa-bicyclo [4,4,0]decane derivatives” (Beecham Group Limited, priority 1980, dated 1982).
